Results published in PMC6761804 (ACS Omega, 2019).

System: colorectal tumor of Apc^min/+ genetically engineered CRC mouse
Assay type: in vivo, Apc^min/+ mice
Conditions: i.v. about 3.7 MBq, PET/CT after 1 h (Figure S4)

## OC[C@H]1OC(O)[C@H](F)[C@@H](O)[C@@H]1O (stereo partly shown) [^18F-FDG, ^18F-Fluorodeoxyglucose, reference compound]
  Tumor enrichment in PET/CT (in words): did not show ideal tumor enrichment
